Experimental data from patent EP0025288A1, “Derivatives of monic acid, processes for their preparation, compositions containing them and their preparation” (priority 1979, dated 1981).

What was measured:
Staph aureus Oxford = assay: MIC, veterinary bacteria; type: cell-based; conditions: Staphylococcus aureus, veterinary bacteria (Table 2), read-out: MIC
M. gallisepticum S6 = assay: MIC, anti-mycoplasmal, Friis broth solidified with 0.9% agarose; type: cell-based; conditions: Mycoplasmoides gallisepticum, 144 h, inoculum 10^3 to 10^5 C.F.U., 6 days incubation at 37°C, read-out: in vitro MIC
M. suipneumoniae NB12 = assay: as above; type: cell-based; conditions: Mesomycoplasma hyopneumoniae, 144 h, inoculum 10^3 to 10^5 C.F.U., 6 days incubation at 37°C, read-out: in vitro MIC
E coli NCTC 10418 = assay: MIC, veterinary bacteria; type: cell-based; conditions: veterinary bacteria (Table 2), read-out: MIC
Strep uberis SPU1 = assay: MIC, veterinary bacteria; type: cell-based; conditions: veterinary bacteria (Table 2), read-out: MIC
M. suipneumoniae HK(2) = assay: MIC, anti-mycoplasmal, Friis broth solidified with 0.9% agarose; type: cell-based; conditions: Mesomycoplasma hyopneumoniae, 144 h, inoculum 10^3 to 10^5 C.F.U., 6 days incubation at 37°C, read-out: in vitro MIC
M. hyorhinis ATCC 25021 = assay: as above; type: cell-based; conditions: Mesomycoplasma hyorhinis, ATCC25021, 144 h, inoculum 10^3 to 10^5 C.F.U., 6 days incubation at 37°C, read-out: in vitro MIC
[1] = tested on: M. suipneumoniae J2206/183b; assay: as above; type: cell-based; conditions: Mesomycoplasma hyopneumoniae, 144 h, inoculum 10^3 to 10^5 C.F.U., 6 days incubation at 37°C, read-out: in vitro MIC
Strep agalactiae SPA1 = assay: MIC, veterinary bacteria; type: cell-based; conditions: veterinary bacteria (Table 2), read-out: MIC
M. pneumoniae ATCC 15492 = assay: MIC, anti-mycoplasmal, Friis broth solidified with 0.9% agarose; type: cell-based; conditions: Mycoplasmoides pneumoniae, ATCC15492, 144 h, inoculum 10^3 to 10^5 C.F.U., 6 days incubation at 37°C, read-out: in vitro MIC
M. dispar NCTC 10125 = assay: as above; type: cell-based; conditions: 144 h, inoculum 10^3 to 10^5 C.F.U., 6 days incubation at 37°C, read-out: in vitro MIC
Past Haemolytica PA5 = assay: MIC, veterinary bacteria; type: cell-based; conditions: veterinary bacteria (Table 2), read-out: MIC
M. suipneumoniae MS 16 = assay: MIC, anti-mycoplasmal, Friis broth solidified with 0.9% agarose; type: cell-based; conditions: Mesomycoplasma hyopneumoniae, MS16, 144 h, inoculum 10^3 to 10^5 C.F.U., 6 days incubation at 37°C, read-out: in vitro MIC
[2] = Serum binding by ultrafiltration; type: in vitro ADME, pig; conditions: pig, serum, compounds at 8 mcg/ml, microbiological assay (B. subtilis ATCC 6633), read-out: % bound to pig serum (converted)
Method: Serum binding was assessed by ultrafiltration of procine serum containing compounds at 8 mcg/ml, and through an Amicon CF50A ultrafiltration cone. Separation of ultrafiltrate was achieved by centrifugation.

E coli E1 = assay: MIC, veterinary bacteria; type: cell-based; conditions: veterinary bacteria (Table 2), read-out: MIC
M. hyorhinis ATCC 23234 = assay: MIC, anti-mycoplasmal, Friis broth solidified with 0.9% agarose; type: cell-based; conditions: Mesomycoplasma hyorhinis, ATCC23234, 144 h, inoculum 10^3 to 10^5 C.F.U., 6 days incubation at 37°C, read-out: in vitro MIC
[3] = tested on: M. suipneumoniae ATCC 25095; assay: as above; type: cell-based; conditions: Mesomycoplasma hyopneumoniae, ATCC25095, 144 h, inoculum 10^3 to 10^5 C.F.U., 6 days incubation at 37°C, read-out: in vitro MIC
M. bovis NCTC 10131 = assay: microbe, parasite or virus in culture; type: cell-based; conditions: NCTC10131, 144 h, read-out: in vitro MIC
[4] = tested on: M. bovigenitalium ATCC 14173; assay: MIC, anti-mycoplasmal, Friis broth solidified with 0.9% agarose; type: cell-based; conditions: 144 h, inoculum 10^3 to 10^5 C.F.U., 6 days incubation at 37°C, read-out: in vitro MIC
Past multocida PA1 = assay: MIC, veterinary bacteria; type: cell-based; conditions: veterinary bacteria (Table 2), read-out: MIC
S dublin S7 = assay: MIC, veterinary bacteria; type: cell-based; conditions: veterinary bacteria (Table 2), read-out: MIC
M. suipneumoniae LABER = assay: MIC, anti-mycoplasmal, Friis broth solidified with 0.9% agarose; type: cell-based; conditions: Mesomycoplasma hyopneumoniae, 144 h, inoculum 10^3 to 10^5 C.F.U., 6 days incubation at 37°C, read-out: in vitro MIC
S typhimurium S18 = assay: MIC, veterinary bacteria; type: cell-based; conditions: veterinary bacteria (Table 2), read-out: MIC
Past multocida PA2 = assay: MIC, veterinary bacteria; type: cell-based; conditions: veterinary bacteria (Table 2), read-out: MIC
M. suipneumoniae Str. 11 = assay: MIC, anti-mycoplasmal, Friis broth solidified with 0.9% agarose; type: cell-based; conditions: Mesomycoplasma hyopneumoniae, 144 h, inoculum 10^3 to 10^5 C.F.U., 6 days incubation at 37°C, read-out: in vitro MIC
[5] = tested on: M. suipneumoniae NCTC 10110; assay: as above; type: cell-based; conditions: Mesomycoplasma hyopneumoniae, NCTC10110, 144 h, inoculum 10^3 to 10^5 C.F.U., 6 days incubation at 37°C, read-out: in vitro MIC
M. suipneumoniae JF 435 = assay: as above; type: cell-based; conditions: Mesomycoplasma hyopneumoniae, JF435, 144 h, inoculum 10^3 to 10^5 C.F.U., 6 days incubation at 37°C, read-out: in vitro MIC
[6] = tested on: Staph aureus 152 (pen sens); assay: MIC, veterinary bacteria; type: cell-based; conditions: Staphylococcus aureus, veterinary bacteria (Table 2), read-out: MIC
M. suipneumoniae TAM 6N = assay: MIC, anti-mycoplasmal, Friis broth solidified with 0.9% agarose; type: cell-based; conditions: Mesomycoplasma hyopneumoniae, TAM6N, 144 h, inoculum 10^3 to 10^5 C.F.U., 6 days incubation at 37°C, read-out: in vitro MIC
[7] = tested on: Corynebacterium pyogenes CY1; assay: MIC, veterinary bacteria; type: cell-based; conditions: veterinary bacteria (Table 2), read-out: MIC
[8] = tested on: M. suipneumoniae PW/C/210; assay: MIC, anti-mycoplasmal, Friis broth solidified with 0.9% agarose; type: cell-based; conditions: Mesomycoplasma hyopneumoniae, 144 h, inoculum 10^3 to 10^5 C.F.U., 6 days incubation at 37°C, read-out: in vitro MIC
Strep dysgalaciae SPD1 = assay: MIC, veterinary bacteria; type: cell-based; conditions: veterinary bacteria (Table 2), read-out: MIC
[9] = tested on: M. hyosynoviae ATCC 25591; assay: MIC, anti-mycoplasmal, Friis broth solidified with 0.9% agarose; type: cell-based; conditions: 144 h, inoculum 10^3 to 10^5 C.F.U., 6 days incubation at 37°C, read-out: in vitro MIC
[10] = tested on: Strep suis (group D) SPS11; assay: MIC, veterinary bacteria; type: cell-based; conditions: veterinary bacteria (Table 2), read-out: MIC
Bord bronchisptica BO9 = assay: MIC, veterinary bacteria; type: cell-based; conditions: veterinary bacteria (Table 2), read-out: MIC
Bord bronchiseptica BO8 = assay: MIC, veterinary bacteria; type: cell-based; conditions: veterinary bacteria (Table 2), read-out: MIC
M. suipneumoniae UCD 1 = assay: MIC, anti-mycoplasmal, Friis broth solidified with 0.9% agarose; type: cell-based; conditions: Mesomycoplasma hyopneumoniae, UCD1, 144 h, inoculum 10^3 to 10^5 C.F.U., 6 days incubation at 37°C, read-out: in vitro MIC
[11] = tested on: Erysipelothrix rhusiopathiae NCTC 8163; assay: MIC, veterinary bacteria; type: cell-based; conditions: NCTC8163, veterinary bacteria (Table 2), read-out: MIC
[12] = tested on: Staph aureus B4 (pen resis); assay: MIC, veterinary bacteria; type: cell-based; conditions: Staphylococcus aureus, veterinary bacteria (Table 2), read-out: MIC

CC(=O)Nc1ccc(C(=O)CCCOC(=O)C=C(C)CC2OCC(CC3OC3C(C)C(C)O)C(O)C2O)cc1 (centres unmarked) [Example 9, 4-(4-Acetamidophenyl)-4-oxobutyl monate A]
> 80 µg/mL: MIC (E coli NCTC 10418) | MIC (E coli E1) | MIC (S dublin S7) | MIC (S typhimurium S18) | MIC [7] | MIC (Bord bronchiseptica BO8)
0.156 µg/mL: MIC (Strep uberis SPU1) | MIC (Strep dysgalaciae SPD1)
≤ 0.01 µg/mL: MIC (M. bovis NCTC 10131)
2.5 µg/mL: MIC (M. gallisepticum S6) | MIC (Past multocida PA1) | MIC [10]
0.25 µg/mL: MIC (M. hyorhinis ATCC 25021) | MIC (M. suipneumoniae MS 16) | MIC (M. hyorhinis ATCC 23234) | MIC (M. suipneumoniae LABER) | MIC (M. suipneumoniae Str. 11) | MIC [8]
0.1 µg/mL: MIC (M. dispar NCTC 10125) | MIC [9]
0.05 µg/mL: MIC [4]
20 µg/mL: MIC (Past Haemolytica PA5) | MIC (Bord bronchisptica BO9) | MIC [11]
0.5 µg/mL: MIC (M. suipneumoniae NB12) | MIC (M. suipneumoniae HK(2)) | MIC [1] | MIC (M. pneumoniae ATCC 15492) | MIC [3] | MIC [5] | MIC (M. suipneumoniae JF 435) | MIC (M. suipneumoniae TAM 6N) | MIC (M. suipneumoniae UCD 1)
0.625 µg/mL: MIC (Staph aureus Oxford) | MIC (Strep agalactiae SPA1) | MIC (Past multocida PA2) | MIC [6]
0.138: fraction unbound [2]
1.25 µg/mL: MIC [12]

CC(=CC(=O)OC1CCCC(=O)CCC1)CC1OCC(CC2OC2C(C)C(C)O)C(O)C1O (centres unmarked) [Example 10, Cyclooctan-5-onyl monate A]
2.5 µg/mL: MIC (Staph aureus Oxford) | MIC (M. suipneumoniae NB12) | MIC (M. suipneumoniae HK(2)) | MIC [1] | MIC (M. suipneumoniae JF 435) | MIC [6] | MIC (M. suipneumoniae TAM 6N) | MIC [12]
> 80 µg/mL: MIC (E coli NCTC 10418) | MIC (E coli E1) | MIC (S dublin S7) | MIC (S typhimurium S18) | MIC (Bord bronchiseptica BO8)
0.025 µg/mL: MIC (M. bovis NCTC 10131)
40 µg/mL: MIC (Past Haemolytica PA5) | MIC (Past multocida PA1)
0.5 µg/mL: MIC (M. dispar NCTC 10125)
0.25 µg/mL: MIC [9]
> 10 µg/mL: MIC (M. gallisepticum S6)
5 µg/mL: MIC (Strep dysgalaciae SPD1)
1.25 µg/mL: MIC (Strep uberis SPU1) | MIC (Past multocida PA2)
80 µg/mL: MIC [7] | MIC [10] | MIC (Bord bronchisptica BO9) | MIC [11]
10 µg/mL: MIC (Strep agalactiae SPA1) | MIC (M. pneumoniae ATCC 15492)
0.05 µg/mL: MIC [4]
1 µg/mL: MIC (M. hyorhinis ATCC 25021) | MIC (M. suipneumoniae MS 16) | MIC (M. hyorhinis ATCC 23234) | MIC [3] | MIC (M. suipneumoniae LABER) | MIC (M. suipneumoniae Str. 11) | MIC [5] | MIC [8] | MIC (M. suipneumoniae UCD 1)
